According to EP4000614A1, “EFLOXATE FOR USE AS ANTIVIRAL AGENT” (Consejo Superior de Investigaciones Científicas (CSIC), priority 2020, dated 2022):

Key:
[1] = system: RD114-pseudotypes; format: cell-based
[2] = system: 229E-GFP virus; experiment: microbe, parasite or virus in culture; format: cell-based, human 229E coronavirus; details: 72 h
[3] = Cytotoxicity measurement by MTT assay; format: cell-based; details: African green monkey, Vero-E6 cells
Procedure: (§1) Cytotoxicity measurement by MTT assays (MTT assay: cell viability assay that infers reductive capacity of the cells via formation of formazan precipitates. Overall estimation of cell metabolic rate): Vero-E6 cell monolayers were treated with a wide range of compound concentrations (from 50 to 0.78 µM) and forty-eight hours later they were subjected to MTT assays following the manufacturer's instructions. Compound concentration leading to a 50% of cytotoxicity (CC50) were determined (Table 2).

[4] = system: Vero-E6 cells; experiment: Cytotoxicity measurement by MTT assay; format: cell-based; details: 48 hours
Procedure: as §1

[5] = in vitro; details: human
[6] = system: SARS-CoV-2 strain NL/2020; experiment: SARS-CoV-2 cell monolayer protection assay (crystal violet) in Vero-E6 cells
[7] = system: pseudotypes based on vesicular stomatitis virus (VSV-G) glycoprotein; format: cell-based
[8] = system: SARS-CoV-2 E RNA; experiment: Intracellular viral RNA quantitation by RT-qPCR in Vero-E6 cells; format: cell-based; details: for VIRAL LOAD MOI 0.001 (% OF CONTROL): MOI 0.001, 48 hours, Vero-E6; for LOG DROP: relative reduction in viral RNA accumulation in log scale
[9] = system: SARS-CoV-2 S protein-pseudotyped retroviral vectors; format: cell-based

CCOC(=O)COc1ccc2c(=O)cc(-c3ccccc3)oc2c1 [Efloxate, efloxate]
RD114pp (% of control) [1]: 153.15 % of control
EC50 ([2]; human coronavirus 229E): 1.6 µM
EC90 ([2]; unidentified human coronavirus): 5 µM
CC50 at 48 h [3]: > 50 µM
HIGHEST NON-TOXIC CONCENTRATION (MTT) [4]: 12.5
CC50 at 72 h [5]: 35 µM
PC MAX ([6]; Maximum concentration that protects cells (100%) from the cytopathic effect, Vero-E6, MOI 0.001, 72 hours): 50 µM
PC MIN ([6]; Minimum concentration that protects cells (100%) from the cytopathic effect, Vero-E6, MOI 0.001, 72 hours): 25 µM
antiviral activity at non-cytotoxic concentrations ([6]; human coronavirus, including SARS-CoV-2): 12.5 to 50 µM
VSVpp (% of control) [7]: 106.24 % of control
VIRAL LOAD MOI 0.001 (% OF CONTROL) ([8]; dose 12.5 µM): 27.42 % OF CONTROL
VIRAL LOAD MOI 0.001 (% OF CONTROL) ([8]; dose 25 µM): 24.34 % OF CONTROL
VIRAL LOAD MOI 0.001 (% OF CONTROL) ([8]; dose 35 µM): 0.00 % OF CONTROL
VIRAL LOAD MOI 0.001 (% OF CONTROL) ([8]; dose 50 µM): 0.06 % OF CONTROL
LOG DROP ([8]; dose 12.5 µM): 0.55
LOG DROP ([8]; dose 25 µM): 0.6
LOG DROP ([8]; dose 35 µM): 5.5
LOG DROP ([8]; dose 50 µM): 3.2
Spp (% of control) [9]: 16.68 % of control
pseudotype entry selectivity [9]: interfere selectively with Spp entry
